Experimental data reported in the NIST ThermoML archive (doi:10.1016/j.jct.2008.11.003).

Legend:
[1] = refractive index (Na D-line) (dimensionless); conditions: 101.33 kPa, Liquid, Standard Abbe refractometry
[2] = 101.33 kPa, Liquid; for mass density: Vibrating tube method; for viscosity: Cone and plate viscometry

CC(=O)[O-].OCC[NH2+]CCO [2,2'-azanediylbis(ethanol) acetate]
Conditions	mass density [kg/m3]	refractive index	viscosity [mPa·s]
[1], 293.15 K	–	1.43431	–
[1], 298.15 K	–	1.43338	–
[1], 303.15 K	–	1.43238	–
[1], 308.15 K	–	1.43137	–
[1], 313.15 K	–	1.43029	–
[1], 318.15 K	–	1.42916	–
[1], 323.15 K	–	1.42798	–
[1], 328.15 K	–	1.42673	–
[1], 333.15 K	–	1.42547	–
[2], 293.15 K	1173.85	–	–
[2], 298.2 K	–	–	566.89
[2], 303.15 K	1166.39	–	–
[2], 303.2 K	–	–	376.59
[2], 308.2 K	–	–	260.02
[2], 313.15 K	1160.12	–	–
[2], 313.2 K	–	–	183.97
[2], 318.2 K	–	–	136.06
[2], 323.15 K	1153.96	–	–
[2], 323.2 K	–	–	101.06
[2], 328.2 K	–	–	78.35
[2], 333.15 K	1147.64	–	–
[2], 333.2 K	–	–	60.25
[2], 338.2 K	–	–	48.79
[2], 343.15 K	1141.22	–	–
[2], 343.2 K	–	–	38.65
[2], 348.2 K	–	–	31.51
[2], 353.15 K	1134.66	–	–
[2], 363.15 K	1127.97	–	–

CC(=O)[O-].[NH3+]CCO [2-hydroxyethylammonium acetate]
Conditions	mass density [kg/m3]	refractive index	viscosity [mPa·s]
[1], 293.15 K	–	1.43775	–
[1], 298.15 K	–	1.43682	–
[1], 303.15 K	–	1.43593	–
[1], 308.15 K	–	1.4351	–
[1], 313.15 K	–	1.43428	–
[1], 318.15 K	–	1.43356	–
[1], 323.15 K	–	1.43287	–
[1], 328.15 K	–	1.43223	–
[1], 333.15 K	–	1.43164	–
[2], 293.15 K	1148.66	–	–
[2], 298.2 K	–	–	313.15
[2], 303.15 K	1143.39	–	–
[2], 303.2 K	–	–	224.68
[2], 308.2 K	–	–	162.91
[2], 313.15 K	1138.02	–	–
[2], 313.2 K	–	–	120.26
[2], 318.2 K	–	–	92.56
[2], 323.15 K	1132.52	–	–
[2], 323.2 K	–	–	70.68
[2], 328.2 K	–	–	56.56
[2], 333.15 K	1126.94	–	–
[2], 333.2 K	–	–	43.91
[2], 338.2 K	–	–	34.98
[2], 343.15 K	1121.26	–	–
[2], 343.2 K	–	–	29.04
[2], 348.2 K	–	–	24.05
[2], 353.15 K	1115.47	–	–
[2], 363.15 K	1109.55	–	–

CC(O)C(=O)[O-].[NH3+]CCO (stereo not given) [2-hydroxyethylammonium lactate]
Conditions	mass density [kg/m3]	refractive index	viscosity [mPa·s]
[1], 293.15 K	–	1.43858	–
[1], 298.15 K	–	1.43758	–
[1], 303.15 K	–	1.43658	–
[1], 308.15 K	–	1.43557	–
[1], 313.15 K	–	1.43455	–
[1], 318.15 K	–	1.43354	–
[1], 323.15 K	–	1.43252	–
[1], 328.15 K	–	1.43148	–
[1], 333.15 K	–	1.43043	–
[2], 293.15 K	1204.52	–	–
[2], 298.2 K	–	–	254.25
[2], 303.15 K	1197.84	–	–
[2], 303.2 K	–	–	181.45
[2], 308.2 K	–	–	133.32
[2], 313.15 K	1191.86	–	–
[2], 313.2 K	–	–	100.02
[2], 318.2 K	–	–	76.88
[2], 323.15 K	1185.78	–	–
[2], 323.2 K	–	–	60.18
[2], 328.2 K	–	–	48.12
[2], 333.15 K	1179.64	–	–
[2], 333.2 K	–	–	38.12
[2], 338.2 K	–	–	31.02
[2], 343.15 K	1173.45	–	–
[2], 343.2 K	–	–	24.98
[2], 348.2 K	–	–	21.26
[2], 353.15 K	1167.19	–	–
[2], 363.15 K	1160.86	–	–

CC(=O)[O-].C[NH+](CCO)CCO [N-methyldiethanolammonium acetate]
Conditions	mass density [kg/m3]	refractive index	viscosity [mPa·s]
[1], 293.15 K	–	1.43302	–
[1], 298.15 K	–	1.43215	–
[1], 303.15 K	–	1.43122	–
[1], 308.15 K	–	1.43023	–
[1], 313.15 K	–	1.42922	–
[1], 318.15 K	–	1.42813	–
[1], 323.15 K	–	1.42702	–
[1], 328.15 K	–	1.42583	–
[1], 333.15 K	–	1.42462	–
[2], 293.15 K	1141.42	–	–
[2], 298.2 K	–	–	198.91
[2], 303.15 K	1132.76	–	–
[2], 303.2 K	–	–	144.69
[2], 308.2 K	–	–	108.33
[2], 313.15 K	1125.85	–	–
[2], 313.2 K	–	–	83.56
[2], 318.2 K	–	–	64.12
[2], 323.15 K	1118.75	–	–
[2], 323.2 K	–	–	50.96
[2], 328.2 K	–	–	40.45
[2], 333.15 K	1111.46	–	–
[2], 333.2 K	–	–	32.15
[2], 338.2 K	–	–	25.98
[2], 343.15 K	1103.98	–	–
[2], 343.2 K	–	–	22.32
[2], 348.2 K	–	–	18.45
[2], 353.15 K	1096.28	–	–
[2], 363.15 K	1088.36	–	–

CC(O)C(=O)O.OCCNCCO [diethanolamine lactate]
Conditions	mass density [kg/m3]	refractive index	viscosity [mPa·s]
[1], 293.15 K	–	1.44156	–
[1], 298.15 K	–	1.44142	–
[1], 303.15 K	–	1.44109	–
[1], 308.15 K	–	1.44056	–
[1], 313.15 K	–	1.43983	–
[1], 318.15 K	–	1.43891	–
[1], 323.15 K	–	1.43776	–
[1], 328.15 K	–	1.43642	–
[1], 333.15 K	–	1.43489	–
[2], 293.15 K	1206.34	–	–
[2], 298.2 K	–	–	288.56
[2], 303.15 K	1198.77	–	–
[2], 303.2 K	–	–	204.15
[2], 308.2 K	–	–	148.54
[2], 313.15 K	1192.47	–	–
[2], 313.2 K	–	–	110.25
[2], 318.2 K	–	–	84.34
[2], 323.15 K	1186.14	–	–
[2], 323.2 K	–	–	65.45
[2], 328.2 K	–	–	51.78
[2], 333.15 K	1179.73	–	–
[2], 333.2 K	–	–	42.15
[2], 338.2 K	–	–	33.45
[2], 343.15 K	1173.25	–	–
[2], 343.2 K	–	–	27.15
[2], 348.2 K	–	–	22.45
[2], 353.15 K	1166.69	–	–
[2], 363.15 K	1160.03	–	–
